The values that follow come from the NIST ThermoML archive (doi:10.1021/je500205z).

For series [1] the following is noted: Maximal bubble pressure.
A short description of series [2]: an = ratio of the nth substance listed. The following applies: 293.15 K, Maximal bubble pressure.

± gives the expanded uncertainty stated by the source.

By surface tension liquid-gas is commonly meant the work needed to enlarge the surface of a liquid by unit area. In the case of `C=Cn1cc[n+](C(C)C(=O)OCC)c1.[Cl-]` (configuration not stated), the surface tension liquid-gas stood at 66.75 ± 0.77 mN/m in series [1] (293.15 K); 63.9 ± 0.74 mN/m in series [1] (298.15 K); 61.18 ± 0.71 mN/m in series [1] (303.15 K); 58.46 ± 0.68 mN/m in series [1] (308.15 K); 55.89 ± 0.65 mN/m in series [1] (313.15 K); 53.02 ± 0.62 mN/m in series [1] (318.15 K). Moreover, the surface tension liquid-gas in series [1] (323.15 K) is 50.55 ± 0.59 mN/m; in series [1] (328.15 K), 48.14 ± 0.57 mN/m; in series [1] (333.15 K), 45.54 ± 0.54 mN/m.
As for `C=C[n+]1ccn(CCCCCCCCCC)c1.[Br-]` [1-decyl-3-ethenylimidazolium bromide] + O, the surface tension liquid-gas in series [2] (a1 = 3.263) turned out to be 35.27 ± 0.37 mN/m.
For the compound `C=Cn1cc[n+](CCCCCCCC)c1.[Br-]` [1-ethenyl-3-octylimidazolium bromide] + c1ccccc1, in series [2] (a1 = 0.08467), the surface tension liquid-gas is recorded as 29.32 ± 0.46 mN/m.
Regarding `C=Cn1cc[n+](CCCCCC)c1.[Br-]` [3-hexyl-1-vinyl-1H-imidazol-3-ium bromide] + CC(C)=O, the surface tension liquid-gas in series [2] (a1 = 0.6455) was 24.3 ± 0.39 mN/m.
`C=Cn1cc[n+](CCCCCCCC)c1.[Br-]` [1-ethenyl-3-octylimidazolium bromide] + CCO: the surface tension liquid-gas in series [2] (a1 = 1.497) came out at 23.07 ± 0.37 mN/m.
`C=Cn1cc[n+](CCCCCC)c1.[Br-]` [3-hexyl-1-vinyl-1H-imidazol-3-ium bromide]: the surface tension liquid-gas in series [1] (293.15 K) is listed as 62.29 ± 0.72 mN/m; in series [1] (298.15 K), 59.52 ± 0.69 mN/m; in series [1] (303.15 K), 56.81 ± 0.66 mN/m; in series [1] (308.15 K), 53.95 ± 0.63 mN/m; in series [1] (313.15 K), 51.15 ± 0.6 mN/m; in series [1] (318.15 K), 48.44 ± 0.57 mN/m. The surface tension liquid-gas in series [1] (323.15 K) is reported as 45.67 ± 0.54 mN/m; in series [1] (328.15 K) it was 43.01 ± 0.51 mN/m; in series [1] (333.15 K), 40.4 ± 0.48 mN/m.
In the case of `CC(C)=O` [acetone], in series [1] (293.15 K), the surface tension liquid-gas is reported as 23.7 ± 0.43 mN/m.
Regarding `C=Cn1cc[n+](CCCCCC)c1.[Br-]` [3-hexyl-1-vinyl-1H-imidazol-3-ium bromide] + O, the surface tension liquid-gas in series [2] (a1 = 5.388) is given as 46.87 ± 0.46 mN/m.
In the case of `C=Cn1cc[n+](CCCCCCCC)c1.[Br-]` [1-ethenyl-3-octylimidazolium bromide] + ClC(Cl)Cl, the surface tension liquid-gas in series [2] (a1 = 0.6921) is on record as 27.79 ± 0.44 mN/m.
Turning to `C=Cn1cc[n+](CCCCCCCC)c1.[Br-]` [1-ethenyl-3-octylimidazolium bromide] + O, the surface tension liquid-gas in series [2] (a1 = 4.059) is 38.86 ± 0.4 mN/m.
With `C=C[n+]1ccn(CCCCCCCCCC)c1.[Br-]` [1-decyl-3-ethenylimidazolium bromide] + CC(C)=O, the surface tension liquid-gas in series [2] (a1 = 0.5403) is 23.39 ± 0.38 mN/m.
For `C=Cn1cc[n+](CCCCCC)c1.[Br-]` [3-hexyl-1-vinyl-1H-imidazol-3-ium bromide] + c1ccccc1, the surface tension liquid-gas in series [2] (a1 = 0.02207) came to 29.6 ± 0.46 mN/m.
In the case of `C=Cn1cc[n+](CCCCCC)c1.[Br-]` [3-hexyl-1-vinyl-1H-imidazol-3-ium bromide] + CCO, the surface tension liquid-gas in series [2] (a1 = 1.744) turned out to be 25.16 ± 0.4 mN/m.
As to `ClC(Cl)Cl` [trichloromethane], in series [1] (293.15 K), the surface tension liquid-gas is given as 27.14 ± 0.48 mN/m.
With `C=Cn1cc[n+](CCCCC)c1.[Br-]` [1-ethenyl-3-pentylimidazolium bromide], the surface tension liquid-gas came to 67.08 ± 0.78 mN/m in series [1] (303.15 K); 64.11 ± 0.74 mN/m in series [1] (308.15 K); 61.08 ± 0.71 mN/m in series [1] (313.15 K); 58.28 ± 0.68 mN/m in series [1] (318.15 K); 55.53 ± 0.65 mN/m in series [1] (323.15 K); 53.24 ± 0.62 mN/m in series [1] (328.15 K). Besides, the surface tension liquid-gas in series [1] (333.15 K) was 50.59 ± 0.59 mN/m.
For the compound `CCO` [ethanol], the surface tension liquid-gas in series [1] (293.15 K) came out at 22.27 ± 0.41 mN/m.
For the compound `C=Cn1cc[n+](CCCCCCCC)c1.[Br-]` [1-ethenyl-3-octylimidazolium bromide], the surface tension liquid-gas in series [1] (293.15 K) turned out to be 59.74 ± 0.7 mN/m; in series [1] (298.15 K) it was 56.82 ± 0.66 mN/m; in series [1] (303.15 K), 54.04 ± 0.63 mN/m; in series [1] (308.15 K) it was 51.22 ± 0.6 mN/m; in series [1] (313.15 K), 48.55 ± 0.57 mN/m; in series [1] (318.15 K) it was 45.79 ± 0.54 mN/m. Moreover, the surface tension liquid-gas in series [1] (323.15 K) was found to be 43.18 ± 0.51 mN/m; in series [1] (328.15 K), 40.6 ± 0.49 mN/m; in series [1] (333.15 K), 38.24 ± 0.46 mN/m.
Turning to `C=C[n+]1ccn(CCCCCCCCCC)c1.[Br-]` [1-decyl-3-ethenylimidazolium bromide] + c1ccccc1, the surface tension liquid-gas in series [2] (a1 = 0.1035) is 29.08 ± 0.46 mN/m.
For `C=C[n+]1ccn(CCCCCCCCCC)c1.[Br-]` [1-decyl-3-ethenylimidazolium bromide] + ClC(Cl)Cl, the surface tension liquid-gas in series [2] (a1 = 0.7667) turned out to be 27 ± 0.43 mN/m.
As to `C=Cn1cc[n+](CCCCCCCC)c1.[Br-]` [1-ethenyl-3-octylimidazolium bromide] + CC(C)=O, the surface tension liquid-gas in series [2] (a1 = 0.5788) is 23.94 ± 0.39 mN/m.
In the case of `c1ccccc1` [benzene], the surface tension liquid-gas in series [1] (293.15 K) was 28.18 ± 0.5 mN/m.
As to `C=C[n+]1ccn(CCCCCCCCCC)c1.[Br-]` [1-decyl-3-ethenylimidazolium bromide], the surface tension liquid-gas in series [1] (293.15 K) was found to be 53.48 ± 0.63 mN/m; in series [1] (298.15 K), 50.63 ± 0.6 mN/m; in series [1] (303.15 K), 47.76 ± 0.56 mN/m; in series [1] (308.15 K), 44.56 ± 0.53 mN/m; in series [1] (313.15 K), 41.8 ± 0.5 mN/m; in series [1] (318.15 K), 39.03 ± 0.47 mN/m. Besides, the surface tension liquid-gas in series [1] (323.15 K) came out at 36.2 ± 0.44 mN/m; in series [1] (328.15 K), 33.77 ± 0.41 mN/m; in series [1] (333.15 K), 32.04 ± 0.39 mN/m.
Regarding `C=Cn1cc[n+](CCCCCC)c1.[Br-]` [3-hexyl-1-vinyl-1H-imidazol-3-ium bromide] + ClC(Cl)Cl, the surface tension liquid-gas in series [2] (a1 = 0.5682) stood at 27.94 ± 0.44 mN/m.
As to `C=C[n+]1ccn(CCCCCCCCCC)c1.[Br-]` [1-decyl-3-ethenylimidazolium bromide] + CCO, the surface tension liquid-gas in series [2] (a1 = 1.255) worked out at 22.27 ± 0.36 mN/m.
